Data set [1] deals with Tawny crazy ant (Nylanderia fulva) workers. The experiment in a line: Species specificity droplet feeding: tawny crazy ant workers. The data set is classed as in vivo. The conditions noted are these: 1% in 10% sucrose, 24 h. The source says:
(§1) To evaluate the effect of tyramine on another pest ant species triplicate groups of 20 Tawny crazy ant (Nylanderia fulva) workers and triplicate groups of 20 fire ant workers were setup. Corresponding controls for both pest ant species were workers fed 10% sucrose solution. The treatment was 1% tyramine in 10% sucrose (weight-to-volume). The control and treatments were presented to the worker ants as droplets on phase separation filter paper. Consumption of the droplets was readily observed. Mortality was monitored for each of the first 10 hours and then at 24 hours. The results are shown as mean±standard error of accumulated mortality for controls and treatments at 24 h in FIG. 13. […] These unexpected results illustrate that the toxicity effects of tyramine on fire ants are not automatically extended to other ant species.

For data set [2], the system named is fire ant workers. The data set can be described thus: Droplet feeding of worker groups: mortality over 24 h and concentration series. The format is in vivo. The settings on record: for worker mortality compared with sucrose control (Kaplan-Meier, Log-rank): 24 h. The procedure:
To determine how quickly the tyramine and acetyl tyramide act, 60 workers were allowed to feed on tyramine (FIG. 8A) or acetyl tyramide (FIG. 8B) dissolved at about 1% in 10% sucrose solution. The control and treatments were presented to the worker ants as droplets on phase separation filter paper. Consumption of the droplets was readily observed. Mortality was monitored for each of the first 10 hours and then at 24 hours. […] Tyramine and acetyl tyramide had >50% and >40% mortality, respectively within the 24 h time period of the experiment. […] This distribution is a cornerstone of pest ant baits. To test this hypothesis, a similar experiment was conducted. Workers were allowed to feed on the treatment and control solutions and were then transferred to another container with unfed nestmates. In all cases, it was observed that the treatment fed workers regurgitated the treatment and sucrose solutions to their unfed nestmates through the classic mechanism of trophallaxis (data not shown). Thus, normal worker behavior necessary for bait development was not affected by the treatments under these experimental conditions.
One criteria for an effective pest ant Active Ingredient (AI) is maintenance of activity over 1-3 orders of magnitude, because as the bait is distributed from one ant to another the material is diluted. The AI must maintain activity until all individuals in the colony (e.g., workers, brood and sexuals including the queen) have received the AI. […] Journal of Economic Entomology 99(5): 1739-1748). The 0.01% had >24 h delay in mortality.

For a further data set, the system named is female sexuals (alates). The data set can be described thus: Worker attraction to poison sac extracts of dealates (queen pheromone bioassay). The conditions noted are these: extracts from dealates of fed sub-colonies. The data set is classed as in vivo, Solenopsis invicta.
Data set [3] in a line: Solubility in aqueous solution. The data set is classed as physicochemical.
The subject of data set [4] is mature female alates (MFAs). The data set can be described thus: Injection into MFA abdomen: wing loss (dealation). The settings on record: 100 nL of a 1.0% saline solution injected into the MFA abdomen. The data set is classed as in vivo, Solenopsis invicta. The source says: While the MFAs are in their mother colony, the queen releases primer pheromones that inhibit wing loss (sometimes referred to herein as “dealation”), development of ovaries, wing muscle histolysis, and pheromone production. This release prevents reproductive/resource competition between the MFAs and the mother queen. If MFAs are removed from the colony, they become disinhibited and eventually (e.g., within days) lose their wings and start the physiological processes (e.g., wing loss and ovariole development). MFA also become disinhibited when they leave the colony on a mating flight; however, in this case the now NMQs lose their wings within minutes of landing and initiate the above mentioned physiological/biochemical changes (e.g., wing loss and ovariole development). We know from previous experiments that mating is the trigger, not mating flight initiation or the act of flying (Burns, S. N., et al. (2002) Identification and action of juvenile hormone III from sexually mature alate females of the red imported fire ant, Solenopsis invicta. Journal of Insect Physiology 48: 357-365; Burns, S. N., et al. (2005), The effect of age and social environment on dealation in Solenopsis invicta (Hymenoptera: Formicidae) female […]. […] Burns, S. N., et al. […]

Data set [5] relates to female alates and workers. The experiment in a line: Feeding of queenless colony sub-units with immature female alates. The data set is classed as in vivo, Solenopsis invicta. The source says: In this example, whether feeding tyramine and/or the tyramides to colony sub-units that contained female […] would result in inappropriate wing loss, as well as ovariole development. Wing muscle histolysis, and queen pheromone production normally accompanies wing loss (see Vargo, E. L. (1998), Primer pheromones in ants, pp. 293-313. In […]. Breed, […] and M. L. Winston (eds.), Pheromone communication in social insects ants, wasps, bees, and termites. […], Boulder, Colo.). […] The data supports and confirms that workers are feeding the treatments to the female […], which in turn stimulates wing loss in the […]. FIG. 11B is from the same experiment confirming the worker mortality effects of the tyramine and tyramide treatments.

Data set [6] deals with monogyne queenright colonies. The experiment in a line: Feeding of monogyne queenright colonies: worker and queen mortality. The format is in vivo, Solenopsis invicta. The settings on record: 1% in 10% sucrose, 27 d. The source says:
FIGS. 24A and 24B show results for the sucrose (10%) control and two treatments, tyramine (1%) and N-methyl-tyramine (1%), both dissolved in 10% sucrose. The control and test colonies were monogyne queenright colonies, containing a single queen, brood and workers started in the laboratory from newly mated queens collected in the field. The mean number of workers per colony was 8,400±400. […] Previous experiments used queenless sub-colonies, rather than the queenright colonies in these experiments. The mortality effect on colony queens was unexpected, since worker fire ants are completely sterile and cannot reproduce even if the queen dies. Therefore, when the reproductive queen dies no more brood is produced and the colony is no longer functional—it is considered dead. […] Therefore, 80% of the treated colonies were considered dead.

Another data set concerns 4th instar sexual larvae. The experiment in a line: Direct (hand) feeding of 4th instar sexual larvae. The format is in vivo, Solenopsis invicta. The settings on record: for mortality / sickness of 4th instar sexual larvae: fed once, 80 nL max of about 1% w/v in 10% sucrose, N=10. The source says: It was concluded that the 4th instar larvae are refractory to the mortality effects observed when workers are fed tyramine.

The test system of data set [7] is fire ant workers. The data set can be described thus: Five biogenic amines fed to fire ant workers as droplets. The format is in vivo, Solenopsis invicta. The conditions noted are these: 1% in 10% sucrose, 48 h. The procedure:
Tyramine is one of five biogenic amines that may be found in insects (e.g., dopamine, histamine, octopamine, serotonin, and tyramine). The experiment in this example tests whether fire ant worker mortality effects observed with tyramine may be a general result of the ants ingesting greater than normal amounts of a biogenic amine. To test this hypothesis groups of 20 fire ant worker ants were starved for 24 hours and fed a 1% (w/v) biogenic amine in 10% sucrose solution. Treatments and sucrose were presented to the worker ants as a 25 microliter droplet on a 2 cm^2 piece of silicon treated filter paper. Each treatment and control were performed in triplicate for a total of 60 worker ants per treatment and control. Mortality was monitored for the first 7-8 h after introduction of the sucrose solutions, then at 24 h. The feeding/monitoring sequence was repeated for another 24 h period for a total of 48 h. The results are shown in FIG. 12A-12B in the form of Kaplan-Meier mortality curves.

The subject of data set [8] is fire ant workers. The experiment in a line: Example 14 feeding experiments: fire ant worker mortality.
The subject of data set [9] is mature female alates (MFAs). The experiment in a line: Injection into MFA abdomen: ovariole development and egg-laying. The format is in vivo, Solenopsis invicta. The conditions noted are these: 100 nL of a 1.0% saline solution (1 microgram) injected. From the text:
Two measures of ovariole development were used. […] Measurement of ovariole area in the same samples gave a quantitative measure of ovariole development. […] Within the context of a colony this effect would be in direct conflict with the colony queen. Eggs laid would not be fertile and therefore develop into males. Queen pheromone is also produced by […], which would act to reduce the fecundity of the colony queen. For example, in polygyne colonies the higher the number of queens the lower is the mean egg-laying rate/queen due to the presence of excess queen pheromone (see Vander Meer, R. K., et al. (1992), A comparison of queen oviposition rates from monogyne and polygyne fire ant, Solenopsis invicta, colonies.

Data set [10] has as its system fire ant workers. The data set can be described thus: Species specificity droplet feeding: fire ant workers. The format is in vivo, Solenopsis invicta. The settings on record: 1% in 10% sucrose, 24 h.
Source text: as §1

Here are results for two compounds from patent publication US10568320B2, “Biologically-based control methods for insect pests” (The United States of America, as represented by the …, priority 2017, dated 2020).

“Also recorded” adds a separate entry of the source.

Consider `NCCc1ccc(O)cc1` [tyramine], for which the “accumulated worker mortality compared to sucrose control” value in [1] is listed as “did not have significant mortality compared to its sucrose control; also recorded: no effect on crazy ant workers”; in the data set with fire ant workers [10], “significant mortality compared to its sucrose control”. Also, the delay in mortality in the data set on fire ant workers [2] (0.01% concentration) is reported as > 24 h. Besides, the mortality delay with fire ant workers [2] (0.1% concentration) and in the data set on fire ant workers [2] (1.0% concentration) was ≥ 5 h in each case. In addition, the “worker mortality at a dilution factor of 100” value in the data set with fire ant workers [2] (about 0.01% (weight-to-volume)) was “significant worker mortality”. Also, the “worker mortality compared with sucrose control (Kaplan-Meier, Log-rank)” value in the data set with fire ant workers [2] (about 1% in 10% sucrose) was “significantly greater worker mortality than the sucrose control”. For the same compound, the “worker mortality within the 24 h time period” value with fire ant workers [2] (in vivo) is reported as > 50%. In addition, the “worker attraction to poison sac extracts versus N,N-dimethyl tyramine treatment and controls” value with female sexuals (alates) is “significantly different from those from the N,N-dimethyl tyramine treatment and the sucrose and hexane controls”. For the same compound, in data set [3], the water solubility entry was “water soluble”. In data set [3] (solution), this compound came in with a solubility maximum of 1%. In addition, the “dealation (wing loss) compared to the control” value in [4] is “significantly faster and inappropriate dealation”. Further, in [5] (fed in 10% sucrose continuously for 7 days, via workers), the “wing loss of female alates” value is recorded as “rapid wing loss”. The “ovariole development of female alates fed by workers” value in [5] (sub-colonies) is recorded as “commencement of ovariole development”. In addition, the “% worker mortality at the end of the experiment versus control” value in data set [6] is on record as “significantly different from the corresponding controls”. Also, the “fate of colony queens (five replicates)” value in data set [6] is given as “one colony queen survived out of five”. In addition, the “queen mortality at the end of the experiment versus control” value in data set [6] is “significantly different from the corresponding controls”. Further, the colonies considered dead in [6] (five colonies) was determined as 80%. Moreover, the “mortality / sickness of 4th instar sexual larvae” value with 4th instar sexual larvae was “All sexual larvae fed tyramine died by day 5”. Also, in the data set with 4th instar sexual larvae (in vivo), the “amount fed at which fire ant sexual larvae die” value amounted to 0.8 micrograms. In addition, the “worker mortality, tyramine HCl versus tyramine free base” value with fire ant workers [7] is reported as “not significantly different”. Besides, the “fire ant worker mortality versus 10% sucrose control” value with fire ant workers [8] (0.01% in 10% sucrose), in the data set on fire ant workers [8] (0.1% in 10% sucrose) and in the data set on fire ant workers [8] (1.0% in 10% sucrose) was “significantly different from the 10% sucrose control” throughout. For the same compound, in the data set with fire ant workers [8] (estimated from feeding studies), the “concentration of solution fed to workers that led to mortality after 7 days” value is listed as 0.01 micrograms per microliter. Moreover, the “ovariole development, ovariole area, compared to controls” value in data set [9] was “caused significant ovariole development”. Further, the “ovariole development, ovary rank 1-4, compared to the control” value in [9] is “significant ovariole development”.

acetyl tyramide: in the data set on MFA mid- and hind-gut, the “degradation of the tyramide” value is “No degradation of the tyramide was observed”. Also, the “worker mortality compared with sucrose control (Kaplan-Meier, Log-rank)” value in the data set on fire ant workers [2] (about 1% in 10% sucrose) was “significantly greater worker mortality than the sucrose control”. Besides, in the data set with fire ant workers [2] (about 1% in 10% sucrose, droplets, 60 workers), the “worker mortality within the 24 h time period” value was > 40%. Moreover, the “dealation (wing loss) compared to the control” value in data set [4] is “significantly faster and inappropriate dealation”. Besides, the “mortality / sickness of 4th instar sexual larvae” value in the data set with 4th instar sexual larvae is reported as “none of the acetyl tyramide treatments died or appeared sick”. In addition, in data set [9], the “ovariole development, ovariole area, compared to controls” value is “caused significant ovariole development” and the “ovariole development, ovary rank 1-4, compared to the control” value is “significant ovariole development”.
